In PubChem BioAssay (NCI):
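Protocol summary: plate cells (96-well), add compound at 5 concentrations, incubate 48 h, interpolate endpoints linearly. The concentration for full growth arrest is given as TGI.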

How the values were obtained:
Assay in all cases: inhibition of tumour cell growth, NCI panel, 48 h
DMS 114 small cell lung = test system: DMS 114 small cell lung
NCI-H522 lung = test system: NCI-H522 lung
M19-MEL melanoma = test system: M19-MEL melanoma
DMS 273 small cell lung = test system: DMS 273 small cell lung
HOP-18 NSCLC = test system: HOP-18 NSCLC
DLD-1 colon = test system: DLD-1 colon
KM20L2 colon = test system: KM20L2 colon
LXFL 529 NSCLC = test system: LXFL 529 NSCLC
SNB-78 CNS = test system: SNB-78 CNS
RXF-631 renal = test system: RXF-631 renal
XF 498 CNS = test system: XF 498 CNS

Row | Compound | TGI (DMS 114 small cell lung) | TGI (NCI-H522 lung) | TGI (M19-MEL melanoma) | TGI (DMS 273 small cell lung) | TGI (DLD-1 colon) | TGI (KM20L2 colon) | TGI (LXFL 529 NSCLC) | further results
1 | O=C(Cc1ccccc1)NN1C(=O)C(Cl)C1c1ccc(O)cc1 (stereo not drawn) | > 100 µM | > 100 µM | > 100 µM | > 100 µM | > 100 µM | > 100 µM |  | TGI (HOP-18 NSCLC): > 100 µM
2 | NC1=NS(=O)(=O)Nc2nc(-c3ccc([N+](=O)[O-])o3)[nH]c21 | 34 µM | 33.4 µM | 32.4 µM | 38.7 µM | 32 µM | 58.6 µM | 25.7 µM | TGI (HOP-18 NSCLC): 30.3 µM
3 | CCOC(=O)c1ccc(N2C(=S)N(C(=O)c3ccccc3)C(=Nc3ccccc3)C2=Nc2ccccc2)cc1 |  | > 100 µM |  |  |  |  |  | 
4 | Cc1ccc(-c2cc(N)n(-c3nc4c(c(=O)n(C)c(=O)n4C)n3C)n2)cc1 |  | > 100 µM |  |  |  |  |  | 
5 | O=C1c2ccc3c4ccccc4n(Cc4ccccc4)c3c2C(=O)N1c1ccccc1 | 34.1 µM | 6.93 µM | 33.2 µM | 24.9 µM | 37.3 µM | 45.2 µM | 27.7 µM | TGI (SNB-78 CNS): 71.7 µM; TGI (HOP-18 NSCLC): 24.4 µM; TGI (RXF-631 renal): 36.4 µM
6 | NP(=O)(OCC1=CC(=O)c2ccccc2C1=O)N(CCBr)CCBr (stereo not drawn) |  | 10.9 µM |  |  |  |  |  | 
7 | Cc1ccc2c(c1)[nH]c1cc(C(F)(F)F)ccc1[p+]2=O (stereo not drawn) |  | > 100 µM |  |  |  |  |  | 
8 | CN1NC(=Nc2ccccc2)Sc2c1cnn(-c1ccccc1)c2=O | > 100 µM |  | > 100 µM | > 100 µM | > 100 µM | > 100 µM | > 100 µM | TGI (HOP-18 NSCLC): > 100 µM
9 | CC(C)C(=O)/C=C/c1ccc(Br)cc1 | 37 µM | 41.5 µM | 28.9 µM | 28.7 µM | 20.3 µM | 21.5 µM | 33.8 µM | TGI (XF 498 CNS): 30.4 µM; TGI (SNB-78 CNS): > 100 µM
10 | COC(=O)[C@H](Cc1ccccc1)NC(=O)[C@H](Cc1ccccc1)NC(=O)[C@@H]1CCCN1C(=O)N[C@H]1C2C=CC(C2)C1C(=O)N1CCC[C@H]1C(=O)N[C@@H](C)C(=O)N[C@H](C(=O)OC)C(C)C (stereo partly drawn) |  | > 100 µM |  |  |  |  |  | 
11 | CN(C)c1ccc(C2SCC(=O)N2NS(=O)(=O)c2cccc(C(=O)O)c2)cc1 (stereo not drawn) |  | > 100 µM |  |  |  |  |  | 
12 | CC(=O)Nc1cc2c(s1)CCC1CC(=O)NN=C21 (stereo not drawn) | > 100 µM | > 100 µM | > 100 µM | > 100 µM |  | > 100 µM | > 100 µM | TGI (XF 498 CNS): > 100 µM; TGI (SNB-78 CNS): > 100 µM
13 | N#C/C(=C\n1ccc(=O)[nH]c1=S)C(N)=O |  | > 100 µM |  |  |  |  |  | 
14 | O=C1NC(N/N=C/C(O)C(O)C(O)CO)=N/C1=C\c1ccco1 (stereo not drawn) |  | > 100 µM |  |  |  |  |  | 
15 | CC(=O)O[C@H]1C#C/C=C\C#CC[C@@H]2C(=O)N[C@@H]12 |  | > 100 µM |  |  |  |  |  | 
16 | O=C(NCCCCCCNCc1cccc2ccccc12)Nc1cccc2ccccc12 |  | > 100 µM |  |  |  |  |  | 
17 | O=C1c2ccccc2C(=O)N1Cc1ccccc1-c1c2nc(c(-c3ccccc3CN3C(=O)c4ccccc4C3=O)c3ccc([nH]3)c(-c3ccccc3CN3C(=O)c4ccccc4C3=O)c3nc(c(-c4ccccc4CN4C(=O)c5ccccc5C4=O)c4ccc1[nH]4)C=C3)C=C2 | > 100 µM | > 100 µM | > 100 µM | > 100 µM | > 100 µM | > 100 µM | > 100 µM | TGI (SNB-78 CNS): > 100 µM; TGI (HOP-18 NSCLC): > 100 µM
18 | CC1(CF)SCc2nc3ccccc3n21 (stereo not drawn) |  | > 100 µM |  |  |  |  |  | 
19 | Nn1c(CCCCCCCCc2nnc(COc3ccc(Cl)cc3)n2N)nnc1COc1ccc(Cl)cc1 |  | > 100 µM |  |  |  |  |  | 
20 | CCCCCC(=O)NC(=S)Nc1nn[nH]n1 |  | > 100 µM |  |  |  |  |  | 
21 | CCOC(=O)/C=C(\C(=O)OCC)n1cc(C)c(=O)n(Cc2cnnn2CCCCOC(C)=O)c1=O |  | 3.33 µM |  |  |  |  |  | 
22 | O=C(CSc1nnc(Cc2ccccc2)o1)Nc1ccc([N+](=O)[O-])cc1 | 72.2 µM | > 100 µM | > 100 µM | > 100 µM | > 100 µM | > 100 µM | > 100 µM | TGI (SNB-78 CNS): > 100 µM
23 | NC(=O)NNC(=O)c1nc[nH]c1[N+](=O)[O-] |  | > 100 µM |  |  |  |  |  | 
24 | COc1cc2cccc(N=Cc3cccc(OC)c3OC(C)C)c2cc1OC | 38.7 µM | 39.7 µM | 48.2 µM |  | 70 µM | > 100 µM | 31.1 µM | TGI (XF 498 CNS): 55.4 µM; TGI (SNB-78 CNS): > 100 µM
25 | O=c1c2ncn(COCCCl)c2n(-c2ccccc2)c(=S)n1-c1ccccc1 |  | > 100 µM |  |  |  |  |  | 
26 | COC(=O)N/N=C(\C)C(CN1CCCCC1)C(C1=C(O)c2ccccc2OC1)c1ccccc1 (stereo not drawn) | > 100 µM | > 100 µM | > 100 µM | > 100 µM | > 100 µM | > 100 µM | > 100 µM | TGI (XF 498 CNS): > 100 µM; TGI (SNB-78 CNS): > 100 µM; TGI (HOP-18 NSCLC): > 100 µM
27 | Cc1ccc2c(=O)cc(-c3cccs3)[nH]c2n1 |  | > 47.4 µM |  |  |  |  |  | 
28 | CCCSc1ccc2[nH]c(/N=C/c3ccco3)cc2c1 |  | 78.2 µM |  |  |  |  |  | 
29 | CC1=NN(c2ccc(S(=O)(=O)O)cc2)C2(C1)SCC(=O)N2c1nc2ccccc2s1 (stereo not drawn) |  | > 100 µM |  |  |  |  |  | 
